Results: patent US12054744B2, “NK cells exhibiting an adaptive phenotype and methods for preparing and for using” (Regents of the University of Minnesota, priority 2015, dated 2024)
“And” between values parts separate entries of the source, which are not always exact repeats. Equal values may be shown once.

Test system: cord blood-derived CD56^+ NK cells
Experiment: Cord blood-derived NK cell culture on OP9 native or OP9-DL1 stromal cells with IL-15 with or without IL-21; FACS for CD57 and SYK
Assay type: cell-based, human
Description: OP9 stromal cells transduced with either the empty MigR1 retroviral vector (OP9 native) or with the MigR1 retroviral vector containing the Delta-like 1 gene (OP9-DL1) (Schmitt et al. Immunity. 2002; 17(6):749-756) were cultured in MEMα media+20% fetal bovine serum (FBS) at a concentration of 4×10^5 cells/well in 24-well plates for two days to allow for cell adherence. Plates were then irradiated with 2,000 cGy to stop cell proliferation.
Mononuclear cells were isolated from whole cord blood by density gradient centrifugation. T cells and B cells were depleted by positive magnetic selection using anti-CD3 and anti-CD19 microbeads, respectively. CD3/CD19-depleted cells were then added to irradiated OP9 cells at a concentration of 5×10^5 cells/well and cultured for 14 days in RPMI media+10% FBS supplemented with either 1 ng/mL IL-15 or 10 ng/mL IL-15 with or without 50 ng/mL IL-21.
Cord blood-derived NK cells were analyzed before culture and after 7 and 14 days of culture by fluorescence activated cell sorting (FACS) using the following extracellular and intracellular antibodies: BV785-conjugated anti-CD3 (BioLegend, San Diego, CA), PE-Cy7-conjugated anti-CD56 (BioLegend, San Diego, CA), BV605-conjugated anti-CD57 (BioLegend, San Diego, CA), APC-conjugated SYK (eBioscience, San Diego, CA), and PE-conjugated anti-PLZF (BD Biosciences, San Jose, CA).
The Notch signaling pathway plays an essential role in effector CD8^+ T cell differentiation and controls the acquisition of effector function (Backer et al. Nat Immunol. 2014; 15(12):1143-1151). To determine if Notch signaling could play a role in driving the differentiation and expansion of terminally differentiated and adaptive NK cell subsets, CD3/CD19-depleted mononuclear cells were cultured from cord blood on native OP9 stromal cells or OP9 stromal cells stably transduced with the Notch ligand DL1 in the presence of low-dose (1 ng/mL) IL-15 or high-dose (10 ng/mL) IL-15 with or without IL-21 (50 ng/mL). Cells were harvested at days 7 and 14, and CD56^+ NK cells were analyzed by fluorescence activated cell sorting (FACS) for expression of CD57 and SYK. Prior to culture, an average of 2.13%±0.44 of CD56^+ NK cells expressed CD57.

[1] = OP9-DL1, high-dose (10 ng/mL) IL-15, day 7
[2] = OP9-DL1, high-dose (10 ng/mL) IL-15, day 14
[3] = OP9-DL1, low-dose (1 ng/mL) IL-15, day 7
[4] = OP9-DL1, low-dose (1 ng/mL) IL-15, day 14
[5] = OP9 native, high-dose (10 ng/mL) IL-15, day 7
[6] = OP9 native, high-dose (10 ng/mL) IL-15, day 14
[7] = OP9 native, low-dose (1 ng/mL) IL-15, day 7
[8] = OP9 native, low-dose (1 ng/mL) IL-15, day 14

## IL-15: cytokine in culture medium, low-dose 1 ng/mL or high-dose 10 ng/mL
[1]
  percentage of CD56^+ NK cells expressing CD57: 1.30%±0.31
  percentage of CD56^+ NK cells lacking SYK: 0.34%±0.04 and 0.67%±0.10
[2]
  percentage of CD56^+ NK cells expressing CD57: 0.86%±0.44
  percentage of CD56^+ NK cells lacking SYK: 0.43%±0.15
[3]
  percentage of CD56^+ NK cells expressing CD57: 0.91%±0.34
  percentage of CD56^+ NK cells lacking SYK: 0.25%±0.06
[4]
  percentage of CD56^+ NK cells expressing CD57: 0.93%±0.40
  percentage of CD56^+ NK cells lacking SYK: 0.17%±0.08
[5]
  percentage of CD56^+ NK cells expressing CD57: 0.70%±0.23
  percentage of CD56^+ NK cells lacking SYK: 0.21%±0.05
[6]
  percentage of CD56^+ NK cells expressing CD57: 0.22%±0.10
  percentage of CD56^+ NK cells lacking SYK: 0.43%±0.15
[7]
  percentage of CD56^+ NK cells expressing CD57: 0.59%±0.19
  percentage of CD56^+ NK cells lacking SYK: 0.18%±0.06
[8]
  percentage of CD56^+ NK cells expressing CD57: 0.24%±0.11
  percentage of CD56^+ NK cells lacking SYK: 0.07%±0.03
